Common to all, as to assay: DTP human tumour cell line panel, 48 h
In experiment [1] the test system is EKVX.
Experiment [2] relates to HCT-116.
The test system of experiment [3] is TK-10.
For experiment [4], the system named is SK-MEL-28.
Experiment [5] has as its system LOX IMVI.
Experiment [6] has as its system SF-539.
Experiment [7] deals with PC-3.
For experiment [8], the system named is K562.
Experiment [9] concerns HOP-92.
Experiment [10] concerns OVCAR-4.
Experiment [11] concerns NCI-H460.
The subject of experiment [12] is RPMI-8226.
Experiment [13] relates to OVCAR-8.
Experiment [14] concerns OVCAR-3.
Experiment [15] concerns UACC-257.
The test system of experiment [16] is NCI/ADR-RES.
For experiment [17], the system named is MDA-N.
In experiment [18] the test system is ACHN.
Experiment [19] relates to SK-MEL-5.
The subject of experiment [20] is MCF7.

Where a name gives a salt, the structure may show the parent alone.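 48-hour exposure; five concentrations; linearly interpolated endpoints. The concentration for 50% growth inhibition is given as GI50.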 Activity calls are given as the source filed them. Rule as the data show it: active = GI50 up to about 1.1 µM and inactive = higher.

A word on the GI50: it is the concentration at which growth is held to half of that of the control.

Regarding `Cc1nn(C(=O)c2ccccc2O)c2c1C(c1ccco1)SC(=N)N2` (stereo not drawn), the GI50 in [1] was > 10 µM (inactive); in [2] it was 3.34 µM (inactive); in experiment [3], > 10 µM (inactive); in experiment [4], 6.41 µM (inactive); in [5] it was 3.73 µM (inactive); in [6], 4.28 µM (inactive). The GI50 in experiment [7] was 3.73 µM (inactive); in [8] it was 2.93 µM (inactive); in [9], 4.59 µM (inactive); in [10], 3.04 µM (inactive); in [11], 4.32 µM (inactive); in experiment [12] it was 4.43 µM (inactive). Besides, the GI50 in experiment [13] was 3.61 µM (inactive); in experiment [14] it was 3.32 µM (inactive); in experiment [15] it was 9.89 µM (inactive); in [16], 3.22 µM (inactive); in experiment [17] it was 7.4 µM (inactive); in [18] it was 3.42 µM (inactive).
`Cc1cc(-c2c(Br)cc(C(=O)O)n2C)on1`: the GI50 in experiment [1], in experiment [2], in experiment [3], in [4], in experiment [5] and in experiment [6] was > 100 µM (inactive) throughout. Moreover, the GI50 in [7], in experiment [19], in experiment [8], in experiment [9], in [10] and in experiment [11] was > 100 µM (inactive) in each case. Besides, the GI50 in experiment [12], in experiment [13], in experiment [14], in experiment [15], in experiment [16] and in experiment [17] was > 100 µM (inactive) throughout. For the same compound, the GI50 in experiment [18] is > 100 µM (inactive).
Take `c1ccc([C@H]2CN3CCSC3=N2)cc1` [LEVAMISOLE HYDROCHLORIDE]: the GI50 in experiment [1], in experiment [2], in experiment [4], in [5], in experiment [6] and in experiment [7] was > 100 µM (inactive) throughout. The GI50 in experiment [19], in [8], in experiment [9], in [10], in experiment [11] and in experiment [13] was > 100 µM (inactive) throughout. In addition, the GI50 in experiment [14], in experiment [15], in experiment [16], in experiment [17], in experiment [20] and in [18] was > 100 µM (inactive) each time.
Turning to `C=C(Br)CNCC(=C)Br`, the GI50 in experiment [1] is > 100 µM (inactive); in [2], 68.1 µM (inactive); in [3], > 100 µM (inactive); in experiment [4] it was > 100 µM (inactive); in [5], > 100 µM (inactive); in [6], > 100 µM (inactive). Further, the GI50 was 50.5 µM (inactive) in [7]; 89.7 µM (inactive) in experiment [19]; 38 µM (inactive) in [8]; > 100 µM (inactive) in experiment [10]; > 100 µM (inactive) in [11]; 51.9 µM (inactive) in experiment [12]. The GI50 in experiment [13] was > 100 µM (inactive); in experiment [14] it was 30.8 µM (inactive); in experiment [15], 29 µM (inactive); in experiment [16], > 100 µM (inactive); in [17] it was > 100 µM (inactive); in experiment [20] it was > 100 µM (inactive). Moreover, in [18], the GI50 was > 100 µM (inactive).
As for `COC(=O)c1cn(CCCC(=O)O)nn1`, the GI50 in experiment [1], in [2], in [3], in experiment [4], in experiment [5] and in [6] was > 100 µM (inactive) each time. For the same compound, the GI50 in experiment [7], in [19], in experiment [9], in [10], in experiment [11] and in experiment [13] was > 100 µM (inactive) in each case. Further, the GI50 in experiment [15], in experiment [16], in [17], in [20] and in experiment [18] was > 100 µM (inactive) each time.
As to `O=C1CC(n2ccnc2)c2c(Cl)sc(Cl)c21` (stereo not drawn), the GI50 in experiment [1] was 19.2 µM (inactive); in experiment [2], 14.2 µM (inactive); in experiment [3], 20.2 µM (inactive); in [4] it was 23.7 µM (inactive); in [5], 6.3 µM (inactive); in experiment [6], 17.2 µM (inactive). In addition, the GI50 in experiment [7] is 15.7 µM (inactive); in [19], 18.4 µM (inactive); in experiment [8] it was 7.89 µM (inactive); in [10], 19.5 µM (inactive); in experiment [11] it was 26 µM (inactive); in experiment [12] it was 2.28 µM (inactive). The GI50 in experiment [13] was 13.1 µM (inactive); in [14], 15.4 µM (inactive); in experiment [15], 15.5 µM (inactive); in experiment [16], 23.8 µM (inactive); in experiment [17], 16.2 µM (inactive); in [20], 4.94 µM (inactive). The GI50 in [18] was 18.1 µM (inactive).
`CN(C)C[C@H]1CC[C@@H](CN(C)C)C1=O`: the GI50 was 16.7 µM (inactive) in [1]; 8.32 µM (inactive) in experiment [2]; 8.11 µM (inactive) in experiment [3]; 5.15 µM (inactive) in experiment [4]; 7.14 µM (inactive) in [5]; 10 µM (inactive) in experiment [6]. Besides, the GI50 in experiment [7] was 8.63 µM (inactive); in [19] it was 11.6 µM (inactive); in [8] it was 0.564 µM (active); in [9] it was 8.47 µM (inactive); in [10] it was 9.23 µM (inactive); in [11] it was 19.5 µM (inactive). Further, the concentration for 50% growth inhibition (GI50) in [12] is 0.535 µM (active); in experiment [13], 9.08 µM (inactive); in experiment [14], 9.06 µM (inactive); in experiment [15], 8.47 µM (inactive); in experiment [17], 8.55 µM (inactive); in [20] it was 1.18 µM (inactive). The GI50 in [18] was 8.32 µM (inactive).
For `O=C(O)c1ccc(Oc2nc3ccccc3s2)cc1`, the GI50 in experiment [1], in experiment [2], in [3], in experiment [4], in experiment [5] and in experiment [6] was > 100 µM (inactive) throughout. For the same compound, the GI50 is > 100 µM (inactive) in [7]; > 100 µM (inactive) in experiment [19]; > 100 µM (inactive) in experiment [8]; 87.9 µM (inactive) in experiment [9]; > 100 µM (inactive) in experiment [10]; > 100 µM (inactive) in experiment [11]. The GI50 in [12] was 74 µM (inactive); in experiment [13], > 100 µM (inactive); in [14], > 100 µM (inactive); in [15], > 100 µM (inactive); in experiment [16], > 100 µM (inactive); in experiment [20] it was > 100 µM (inactive). For the same compound, the GI50 in experiment [18] is > 100 µM (inactive).
Take `CCOC(=O)Cc1ccc(Nc2nc3cc(C(F)(F)F)ccc3nc2C(=O)OCC)cc1`: the GI50 in experiment [1] was > 100 µM (inactive); in experiment [2] it was 81.8 µM (inactive); in [3] it was 49.3 µM (inactive); in experiment [4] it was > 100 µM (inactive); in [5], > 100 µM (inactive); in experiment [6] it was 14.7 µM (inactive). The GI50 in experiment [7] was > 100 µM (inactive); in experiment [19], > 100 µM (inactive); in experiment [9], 38.8 µM (inactive); in experiment [10] it was 18.9 µM (inactive); in [11] it was > 100 µM (inactive); in experiment [13] it was 67.5 µM (inactive). Further, the GI50 in experiment [14] is > 100 µM (inactive); in experiment [15], > 100 µM (inactive); in [16] it was > 100 µM (inactive); in experiment [17], > 100 µM (inactive); in experiment [20], 94.4 µM (inactive); in [18] it was 33 µM (inactive).
With `COc1cccc2c1OCC1Cc3ccccc3OC21` (stereo not drawn), the GI50 in experiment [1] is 73.3 µM (inactive); in experiment [2] it was 33.6 µM (inactive); in experiment [3], 21.1 µM (inactive); in experiment [5], 33.3 µM (inactive); in [6] it was 41.6 µM (inactive); in experiment [7], 34.9 µM (inactive). Further, the GI50 was 14.8 µM (inactive) in [19]; 61.1 µM (inactive) in experiment [8]; 47.6 µM (inactive) in experiment [12]; 44.9 µM (inactive) in [13]; 26.5 µM (inactive) in [14]; 24.4 µM (inactive) in [15]. Moreover, the GI50 in experiment [16] is 33.4 µM (inactive); in [17], 25.4 µM (inactive); in experiment [20] it was 38.1 µM (inactive).
Turning to `O=C(c1ccco1)N(C(=O)N1CCC(c2ccccc2)CC1)c1ccccc1`, the GI50 is 20.2 µM (inactive) in experiment [1]; 42.7 µM (inactive) in experiment [2]; 55.3 µM (inactive) in [3]; 62.7 µM (inactive) in [4]; 59.7 µM (inactive) in [5]; 74.5 µM (inactive) in experiment [6]. Also, the GI50 in [7] was 22.3 µM (inactive); in experiment [19] it was 21.6 µM (inactive); in [8] it was 29 µM (inactive); in experiment [12], 17.4 µM (inactive); in experiment [13], 40.7 µM (inactive); in experiment [14] it was 47 µM (inactive). Further, the GI50 is 38.9 µM (inactive) in experiment [15]; 23.2 µM (inactive) in experiment [16]; 42.5 µM (inactive) in [17]; 66.5 µM (inactive) in experiment [20]; > 100 µM (inactive) in experiment [18].

Source of the values: ChEMBL document CHEMBL1201862, “PubChem BioAssay data set” (2004).
